“And” between values parts separate entries of the source, which are not always exact repeats. Identical values can stand only once.
Legend:
Type in all cases: cell-based, human
BT474 cells = experiment: High throughput clonogenic assay, trastuzumab and roscovitine; conditions: agents alone or in combination
Experimental: (§1) FIGS. 27A-27B. […] FIG. 27B. […] Isobologram analysis and graphs were obtained using CalcuSyn software, which performs drug dose—effect calculation using the median effect method. Experiments were performed in triplicate and representative data are shown.

SKBr3 cells = experiment: as above; conditions: agents alone or in combination
Experimental: as §1

MCF-7/Ac1 cells [1] = experiment: Cell number of adenovirus-infected cells (LacZ, cyclin EL, T1, T2); conditions: 20 uM, uninfected, LacZ or cyclin E-T1 infected cells
Description: LMW cyclin E, but not full-length cyclin E, overexpressing MCF-7/Ac1 cells partially override the letrozole inhibition of AD-induced S-phase entry and AD-induced CDK2 protein levels. Since overexpression of LMW cyclin E deregulates the G1 to S transition, the inventors interrogated the role of full-length and LMW cyclin E in letrozole response. To this end, the inventors examined the sensitivity of cyclin E overexpressing MCF-7/Ac1 cells to the growth inhibitory effect of letrozole using adenoviruses to overexpress full-length and LMW cyclin E (FIGS. 24A-24D). MCF-7/Ac1 cells were cultured in charcoal stripped serum media (CSSM) for 4 days before infecting them with 4000 m.o.i. of either LacZ, full-length cyclin E (cyclin EL) or LMW cyclin E (cyclin E-T1 and cyclin E-T2). Twenty-four hours later, cells were left either untreated, treated with 25 nM AD alone, or treated with 25 nM AD plus 1 μM letrozole for an additional 3 days (FIGS. 24A-24B). Following the treatment, cells were enumerated or subjected to flow cytometry analysis.
MCF-7/Ac1 cells were cultured in IMEM with 10% charcoal-stripped serum medium (CSSM) without phenol red and with 600 μg/ml of G418 for 4 days before plating. Triplicate wells of 6-well plates were then infected with the indicated adenoviruses (at 4000 m.o.i.) 24 hours before drug treatment. Cells were then left untreated (E2W, estrogen withdrawal) or treated with 25 nM AD (AD) or treated with 25 nM AD and 1 μM letrozole (AD+Let) and collected 3 days later for cell number. Cell growth is expressed as the percentage of the cells compared with the control cells (25 nM AD treated cells). […] MCF-7/Ac1 cells were treated as described in A, and collected for flow cytometry analysis. Histograms represent the S-phase fraction expressed as the percentage of the cells in S-phase compared with the control cells (25 nM AD treated cells). […] The same cell lysates as in A and B were subjected to western blot analysis (50 μg of protein) with cyclin E and CDK2 antibodies. The bar graph represents the densitometric values of the phosphorylated CDK2 bands. […] Left, MCF-7/Ac1 cells were cultured in IMEM with 10% charcoal-stripped serum medium (CSSM) without phenol red and with 600 μg/ml of G418 for 4 days before plating. Cells were then infected with the indicated adenoviruses (at 4000 m.o.i.) 24 hours before drug treatment. Cells were then treated with 25 nM AD and 1 μM letrozole and collected 3 days later for cell number. […] Columns, mean of two to three experiments, each in triplicates; bars, S.D.
To directly address this question, MCF-7/Ac1 cells were cultured in charcoal stripped serum media (CSSM) for 4 days before adding medium with no virus or with 4000 m.o.i. of either LacZ, or LMW cyclin E (cyclin E-T1) adenoviruses. 24 hours later, cells were left untreated, treated with 25 nM AD alone, or treated with 25 nM AD plus 1 μM letrozole for 3 days (FIG. 24D). The AD-induced growth of MCF-7/Ac1 cells was inhibited by letrozole by 51% in uninfected cells and by 58% in LacZ infected cells while the growth of cyclin E-T1 infected cells was inhibited by only 20% (FIG. 24D, left).

MCF-7/Ac1 cells [2] = experiment: Cell growth by cell counting, AD-stimulated cells; conditions: 3 days
Experimental: Cell growth. The effects of the aromatase inhibitors on MCF7/Ac1 cells growth were examined by counting the cells at the indicated time. The cells were detached from their flask using trypsin and counted using a Coulter counter machine.
To examine the effects of the three different aromatase inhibitors on the proliferation of MCF-7/Ac1 cells, cells were cultured in estrogen deprived, charcoal stripped serum media (CSSM). The response of the cells to 25 nM of androstenedione (AD) alone or AD plus one of the 3 aromatase inhibitors letrozole (FIG. 22A), anastrozole (FIG. 22B), and exemestane (FIG. 22C) was measured after 3 days of treatment. Cells maintained in CSSM were used as controls.
FIGS. 22A-22C show the effect of aromatase inhibitor treatment on proliferative response and cell cycle distribution of MCF-7/Ac1 cells. Cells were cultured in IMEM with 10% charcoal-stripped serum medium (CSSM) without phenol red and with 600 μg/ml of G418 for 4 days before plating. Cells (100,000) were seeded in 100 mm dishes and, 24 hrs later, were exposed for 3 days to the specific treatment. […] CSSM, untreated cells cultured in charcoal-stripped serum medium without phenol red and with 600 μg/ml of G418.

MCF-7/Ac1 cells [3] = experiment: Cell cycle analysis by flow cytometry (PI)
Experimental: Cell cycle analysis. MCF-7/Ac1 cells were cultured in estrogen-deprived media with or without 25 nM 4-androstenedione, and treated with different concentrations of aromatase inhibitors. Untreated and drug treated cells were collected 72 hours later for flow cytometry and lysates were prepared for western blot and kinase assays.
Flow cytometry analysis. Cells were pelleted and resuspended in 1.5 ml of PBS, then fixed in 3.5 ml of 95% ethanol overnight at −20° C. After being washed, the pellets were resuspended in a solution of PBS containing 10 μg/ml propidium iodide, 20 μg/ml RNase A, 0.5% Tween 20, and 0.5% BSA and incubated at 37° C. for 30 min. The profiles of cells in the G0-G1, S, and G2-M phases of the cell cycle were analyzed at the M. D. Anderson Cancer Center Cytometry Core Facility on a FACS Caliber machine equipped with Cellquest or ModFit software.
FIGS. 22A-22C show the effect of aromatase inhibitor treatment on proliferative response and cell cycle distribution of MCF-7/Ac1 cells. Cells were cultured in IMEM with 10% charcoal-stripped serum medium (CSSM) without phenol red and with 600 μg/ml of G418 for 4 days before plating. Cells (100,000) were seeded in 100 mm dishes and, 24 hrs later, were exposed for 3 days to the specific treatment. […] Cell growth is expressed as the percentage of the cells compared with the control cells (25 nM AD treated cells, 575,000 cells at day 3). Columns, mean of two to three experiments, each in triplicates; bars, S.D. *, P<0.05, when compared to cells only treated with 25 nM AD; n.s, not significant. CSSM, untreated cells cultured in charcoal-stripped serum medium without phenol red and with 600 μg/ml of G418.

[4] = test system: cyclin E-associated kinase activity in MCF-7/Ac1 cells; experiment: Cyclin E-associated kinase assay (histone H1); conditions: 25 nM AD, 3 days
Experimental: (§2) Immunoprecipitation and Immunoblotting. Two hundred fifty μg of cell extracts were used per immunoprecipitation with polyclonal antibody to cyclin E or polyclonal antibody to CDK2, coupled to protein A beads. After being washed, the immunoprecipitates were subjected to electrophoresis in 13% gels, transferred to Immobolin P, blocked, and incubated with the indicated antibodies as already described.
(§3) MCF-7/Ac1 cells were treated with the indicated concentrations of letrozole and AD for 3 days. Cyclin E kinase assays were performed by immunoprecipitating equal amounts of cell lysate (250 μg) with monoclonal antibodies to cyclin E coupled to protein A beads, using histone H1 as substrate. […] The same cell lysates were subjected to western blot analysis (50 μg of protein) with the indicated antibodies. […] The same cell lysates were first immunoprecipitated with cyclin E followed by western blot for p21 and p27. […] The same cell lysates were first immunoprecipitated with CDK2 followed by western blot for p21 and p27. The levels of proteins were measured by densitometric scanning of the corresponding bands and normalized using actin values. The values indicated at the bottom were compared to the values obtained with untreated cells.

MCF-7/Ac1 cells [5] = experiment: Western blot of CDK2, phospho-CDK2, cyclin E, pRb; conditions: 25 nM AD
Experimental: FIG. 28. Effect of increasing concentrations of letrozole in the presence of 25 nM AD on CDK2 kinase activity, activated CDK2 and Rb phosphorylation of MCF7/Ac1 human breast cancer cells. MCF-7/Ac1 cells were treated with the indicated concentrations of letrozole and AD for 3 days. CDK2 kinase assays were performed by immunoprecipitating equal amounts of cell lysate (250 μg) with monoclonal antibodies to CDK2 (D12, sc-6248) coupled to protein G beads, using histone H1 as substrate. […] The same cell lysates were subjected to western blot analysis (50 μg of protein) with the indicated antibodies.
(§4) Western blot analysis. Cell lysates were prepared and subjected to western blot analysis as described previously (Akli et al., 2004). Briefly, 50 μg of protein were subjected to electrophoresis on SDS-PAGE and transferred to Immobilon P overnight at 4° C. at […] constant voltage. The blots were blocked overnight at 4° C. in BLOTTO [5% nonfat dried milk in 20 mM Tris, 137 mM NaCl, and 0.05% Tween (pH 7.6)]. After being washed, the blots were incubated in primary antibodies for 3 h. Primary antibodies used were cyclin E (HE-12; Santa Cruz Biotechnology), p21 (0P64; Oncogene Research Products, Boston, Mass.), p27 (K25020; BD Biosciences-Transduction Laboratories, Lexington, Ky.), cyclin-dependent kinase 2 (CDK2; Transduction Laboratories), and actin (Chemicon International, Inc., Temecula, Calif.). Blots were then incubated with goat anti-mouse or anti-rabbit immunoglobulin-horseradish peroxidase conjugate at a dilution of 1:5000 in BLOTTO for 1 h and finally washed and developed by using the Renaissance chemiluminescence system as directed by the manufacturer (Perkin-Elmer Life Sciences, Inc., Boston, Mass.). Western blots were quantitated by densitometric analysis using IPLab Gel software (Scientific Image Processing, Vienna, Va.). Densitometric values of actin were used to standardize for equal protein loading. These values were introduced into the software Graph-Pad Prism version 4.0 (GraphPad Software, Inc., San Diego, Calif.) for statistical analysis.
as §3

[6] = test system: cyclin E and CDK2 complexes in MCF-7/Ac1 cells; experiment: Immunoprecipitation of cyclin E or CDK2 followed by western blot for p21 and p27; conditions: 25 nM AD
Experimental: as §2, §3

[7] = test system: CDK2 protein in MCF-7/Ac1 cells; experiment: Western blot of CDK2 protein levels in adenovirus-infected cells; conditions: 25 nM AD, uninfected and LacZ infected cells
Experimental: as §4
MCF-7/Ac1 cells were cultured in IMEM with 10% charcoal-stripped serum medium (CSSM) without phenol red and with 600 μg/ml of G418 for 4 days before plating. […] Cells were then infected with the indicated adenoviruses (at 4000 m.o.i.) 24 hours before drug treatment.

MCF-7/Ac1 cells [8] = experiment: Sequential AD/letrozole then roscovitine treatment: cell number and CDK2 western blot; conditions: additional two days in medium or medium plus DMSO
Experimental: Medium alone or medium plus DMSO were used as controls. A schematic of the treatment strategy is depicted in FIG. 25A. At the conclusion of the treatment, cells were enumerated and subjected to western blot analysis with CDK2 (total) and phospho-CDK2 antibodies.
Cells were then infected with the indicated adenoviruses (at 4000 m.o.i.) 24 hours before drug treatment.

SMILES: CC[C@H](CO)Nc1nc(NCc2ccccc2)c2ncn(C(C)C)c2n1 [roscovitine]
- cell viability (BT474 cells): dose-dependent reduction in cell viability
- cell viability (SKBr3 cells): dose-dependent reduction in cell viability
- inhibition of AD-induced increase in cell number (MCF-7/Ac1 cells [1]): completely inhibited

SMILES: C=C1C[C@@H]2[C@H](CC[C@]3(C)C(=O)CC[C@@H]23)[C@@]2(C)C=CC(=O)C=C12 [exemestane]
- inhibition at 1 µM (MCF-7/Ac1 cells [2]; Homo sapiens, MCF7, 72 h, 1 μM, with 25 nM AD, read-out: inhibition of AD-induced growth): 25%
- inhibition at 10 µM (MCF-7/Ac1 cells [2]; Homo sapiens, MCF7, 72 h, 10 μM, with 25 nM AD, read-out: inhibition of AD-induced growth): 42%
- cells in G0-G1 (MCF-7/Ac1 cells [3]; 10 μM, with 25 nM AD): 49.2+/−0.7%
- cells in S phase (MCF-7/Ac1 cells [3]; 10 μM, with 25 nM AD): 31.7+/−2.5%

SMILES: C[C@]12CCC(=O)C=C1CC[C@@H]1[C@@H]2CC[C@]2(C)C(=O)CC[C@@H]12 [AD, androstenedione]
- increase in cell number compared to control cells (CSSM) (MCF-7/Ac1 cells [2]; 25 nM AD): 3.9+/−1.3 fold
- fraction of cells in S phase (MCF-7/Ac1 cells [3]; 25 nM AD alone): 40.3+/−1.9%
- increase of fraction of cells in S phase compared to vehicle treated cells (MCF-7/Ac1 cells [3]; 25 nM AD alone): 7.3 fold
- cells in G0-G1 (MCF-7/Ac1 cells [3]; 25 nM AD alone (baseline of exemestane comparison)): 35.1+/−0.8%
- increase in cyclin E-associated kinase activity compared to vehicle treated cells [4]: 1.6 fold
- cyclin E protein levels (MCF-7/Ac1 cells [5]): not affected
- increase in CDK2 protein levels compared to vehicle treated cells (MCF-7/Ac1 cells [5]; 3 days): 2.3 fold
- increase in phospho-CDK2 (MCF-7/Ac1 cells [5]; phospho-specific CDK2 antibody): 3.5 fold
- increase in p21 binding to CDK2 [6]: 1.5 fold
- p21 binding to cyclin E [6]: did not affect
- increase in total CDK2 protein levels [7]: 1.8 fold
- increase in AD-induced proliferation (MCF-7/Ac1 cells [8]; LMW cyclin E overexpressing cells): 2.3 fold and 2.8 fold
- increase in AD-induced proliferation (MCF-7/Ac1 cells [8]; LacZ infected cells): 3.5 fold
- increase in AD-induced proliferation (MCF-7/Ac1 cells [8]; uninfected cells): 4 fold

SMILES: CC(C)(C#N)c1cc(Cn2cncn2)cc(C(C)(C)C#N)c1 [anastrozole]
- inhibition of AD-induced growth (MCF-7/Ac1 cells [2]; any of the concentrations tested, with 25 nM AD): did not inhibit
- effect on cell cycle distribution (MCF-7/Ac1 cells [3]; 10 μM, with 25 nM AD): more subtle effect

Source: patent US20120114636A1, “LOW MOLECULAR WEIGHT CYCLIN E (LMW-E) AS A BIOMARKER FOR PERSONALIZATION OF CANCER THERAPIES” (The Board of Regents of the University of Texas System, priority 2009, published 2012)
